# Biological target: T1, purified human Factor XIa (Homo sapiens, UniProt P03951)
# T1 construct: purified human Factor XIa; purchased Sekisui Diagnostics
# Assay: Factor XIa Assay (fluorogenic substrate Z-Gly-Pro-Arg-AFC)
# Type: biochemical
# Details: purified human Factor XIa 40 pM; Z-Gly-Pro-Arg-AFC 100 μM; 50 mM HEPES pH 7.4; read-out: hFXIa Ki (nM), Factor XIa inhibition
# Procedure: The effectiveness of compound of the present invention as inhibitors of Coagulation Factor XIa can be determined using a relevant purified serine protease, and an appropriate synthetic substrate. The rate of hydrolysis of the chromogenic or fluorogenic substrate by the relevant serine protease was measured both in the absence and presence of compounds of the present invention. Assays were conducted at room temperature or at 37° C. […] A decrease in the rate of fluorescence change in the presence of inhibitor is indicative of enzyme inhibition. Such methods are known to one skilled in the art. The results of this assay are expressed as the inhibitory constant, Ki.
# Factor XIa determinations were made in 50 mM HEPES buffer at pH 7.4 containing 150 mM NaCl, 5 mM CaCl2, and 0.1% PEG 8000 (polyethylene glycol; J T Baker or Fisher Scientific). Determinations were made using purified human Factor XIa at a final concentration of 40 pM (Sekisui Diagnostics) and he synthetic substrate, Z-Gly-Pro-Arg-AFC, TFA salt (Sigma #C0980) at a concentration of 100 μM.
# Activity assays were performed by diluting a stock solution of substrate at least tenfold to a final concentration ≦0.1 Km into a solution containing enzyme or enzyme equilibrated with inhibitor. Times required to achieve equilibration between enzyme and inhibitor were determined in control experiments. Initial velocities of product formation in the absence (Vo) or presence of inhibitor (Vi) were measured. Assuming competitive inhibition, and that unity is negligible compared Km/[S], [I]/e, and [I]/e (where [S], [I], and e respectively represent the total concentrations, of substrate, inhibitor and enzyme), the equilibrium constant (Ki) for dissociation of the inhibitor from the enzyme can be obtained from the dependence of Vo/Vi on [I] shown in the following equation.
# T1 sequence (P03951 388-625 limits assumed): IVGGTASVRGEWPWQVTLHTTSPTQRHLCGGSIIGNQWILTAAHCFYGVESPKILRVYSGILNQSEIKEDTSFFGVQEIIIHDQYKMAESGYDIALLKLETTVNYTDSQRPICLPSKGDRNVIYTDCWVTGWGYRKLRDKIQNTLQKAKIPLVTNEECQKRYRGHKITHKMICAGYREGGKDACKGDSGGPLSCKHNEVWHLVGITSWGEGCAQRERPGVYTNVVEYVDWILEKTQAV
# T1 sequence (P03951 19-387 partner limits assumed): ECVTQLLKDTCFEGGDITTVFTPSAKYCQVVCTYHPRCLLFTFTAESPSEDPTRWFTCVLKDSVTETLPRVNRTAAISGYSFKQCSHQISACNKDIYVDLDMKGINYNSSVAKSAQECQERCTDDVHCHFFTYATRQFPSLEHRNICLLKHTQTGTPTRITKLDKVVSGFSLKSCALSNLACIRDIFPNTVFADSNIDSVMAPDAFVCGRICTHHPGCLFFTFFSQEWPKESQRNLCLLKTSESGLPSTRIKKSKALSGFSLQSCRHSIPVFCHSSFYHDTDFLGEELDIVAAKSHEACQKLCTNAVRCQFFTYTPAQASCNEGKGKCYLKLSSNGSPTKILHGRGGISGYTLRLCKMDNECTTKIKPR
row,SMILES,Ki
1,"O=C(O)c1ccc(NC(=O)C2CCC(c3ccccc3)CN2C(=O)/C=C/c2cc(Cl)ccc2-n2cnnn2)cc1 (centres unmarked) [Example 1-71, (E)-4-(1-(3-(5-chloro-2-(1H-tetrazol-1-yl)phenyl)acryloyl)-5-phenylpiperidine-2-carboxamido)benzoic acid]",2610 nM
2,"N#Cc1ccc(-c2c[nH]c(C3C(c4ccccc4)CCCN3C(=O)/C=C/c3cc(Cl)ccc3-n3cnnn3)n2)cc1 (centres unmarked) [Example 1-22, (E)-4-(2-(1-(3-(5-chloro-2-(1H-tetrazol-1-yl)phenyl)acryloyl)-3-phenylpiperidin-2-yl)-1H-imidazol-4-yl)benzonitrile]",3260 nM
3,"O=C(O)c1ccc(NC(=O)[C@@H]2[C@H](c3ccccc3)CCCN2C(=O)/C=C/c2cc(Cl)ccc2-n2cnnn2)cc1 (single isomer, unassigned) [Example 1-57]",7.6 nM
4,"O=C(/C=C/c1cc(Cl)ccc1-n1cnnn1)N1CCCC(c2ccccc2)C1c1nc(-c2ccc(C(F)(F)F)cc2)c[nH]1 (centres unmarked) [Example 1-30, (E)-3-(5-chloro-2-(1H-tetrazol-1-yl)phenyl)-1-(3-phenyl-2-(4-(4-(trifluoromethyl)phenyl)-1H-imidazol-2-yl)piperidin-1-yl)prop-2-en-1-one]",> 10000 nM
5,"O=C(/C=C/c1cc(Cl)ccc1-n1cnnn1)N1CCCC(c2ccccc2)C1c1nc(-c2cccnc2)c[nH]1 [Example 1-11, (E)-3-(5-chloro-2-(1H-tetrazol-1-yl)phenyl)-1-(3-phenyl-2-(4-(pyridin-3-yl)-1H-imidazol-2-yl)piperidin-1-yl)prop-2-en-1-one (2R,3R)]",8650 nM
6,"O=C(/C=C/c1cc(Cl)ccc1-n1cnnn1)N1CCCC(c2ccccc2)C1c1nc(-c2ccncc2)c[nH]1 (centres unmarked) [Example 1-42, (E)-3-(5-chloro-2-(1H-tetrazol-1-yl)phenyl)-1-(3-phenyl-2-(4-(pyridin-4-yl)-1H-imidazol-2-yl)piperidin-1-yl)prop-2-en-1-one]",237 nM
7,"COC(=O)Nc1ccc(-c2c[nH]c([C@@H]3[C@H](CO)CCCN3C(=O)/C=C/c3cc(Cl)ccc3-n3cnnn3)n2)cc1 [Example 1-67, methyl (4-(2-((2S,3R)-1-((E)-3-(5-chloro-2-(1H-tetrazol-1-yl)phenyl)acryloyl)-3-(hydroxymethyl)piperidin-2-yl)-1H-imidazol-4-yl)phenyl)carbamate]",2640 nM
8,"Nc1ccc(C2CCCN(C(=O)/C=C/c3cc(Cl)ccc3-n3cnnn3)C2C(=O)Nc2ccc(C(=O)O)cc2)cc1 (centres unmarked) [Example 1-33, (E)-4-(3-(4-aminophenyl)-1-(3-(5-chloro-2-(1H-tetrazol-1-yl)phenyl)acryloyl)piperidine-2-carboxamido)benzoic]",46.7 nM
9,"O=C1Cc2cc(-c3cnc([C@H]4[C@@H](c5ccccc5)CCCN4C(=O)/C=C/c4cc(Cl)ccc4-n4cnnn4)[nH]3)ccc2N1 [Example 1-62, 2-((2R,3R)-1-((E)-3-(5-chloro-2-(1H-tetrazol-1-yl)phenyl)acryloyl)-3-phenylpiperidin-2-yl)-5-(2-oxoindolin-5-yl)-1H-imidazol-3-ium 2,2,2-trifluoroacetate]",> 10000 nM
10,"CC(C)(C)OC(=O)c1ccc(NC(=O)C2C(c3ccccc3)CCCN2C(=O)/C=C/c2cc(Cl)ccc2-n2cnnn2)cc1 (racemic) [Example 1-1, (E)-tert-butyl 4-(1-(3-(5-chloro-2-(1H-tetrazol-1-yl)phenyl)acryloyl)-3-phenylpiperidine-2-carboxamido)benzoate]",> 10000 nM
11,"Cc1cc(C2CCCN(C(=O)/C=C/c3cc(Cl)ccc3-n3cnnn3)C2C(=O)Nc2ccc(C(=O)O)cc2)ccc1F (centres unmarked) [Example 1-37, (E)-4-(1-(3-(5-chloro-2-(1H-tetrazol-1-yl)phenyl)acryloyl)-3-(4-fluoro-3-methylphenyl)piperidine-2-carboxamido)benzoic acid]",51.5 nM
12,"NC(=O)c1ccc(C2CCCN(C(=O)/C=C/c3cc(Cl)ccc3-n3cnnn3)C2C(=O)Nc2ccc(C(=O)O)cc2)cc1 (centres unmarked) [Example 1-36, (E)-4-(3-(4-carbamoylphenyl)-1-(3-(5-chloro-2-(1H-tetrazol-1-yl)phenyl)acryloyl)piperidine-2-carboxamido)benzoic acid]",36.2 nM
13,"O=C(Nc1ccc2[nH]ncc2c1)C1C(c2ccccc2)CCCN1C(=O)/C=C/c1cc(Cl)ccc1-n1cnnn1 (centres unmarked) [Example 1-60, (E)-1-(3-(5-chloro-2-(1H-tetrazol-1-yl)phenyl)acryloyl)-N-(1H-indazol-5-yl)-3-phenylpiperidine-2-carboxamide]",145 nM
14,"COC(=O)Nc1ccc(-c2nc([C@@H]3[C@H](c4ccccc4)CCCN3C(=O)/C=C/c3cc(Cl)ccc3-n3cnnn3)[nH]c2Cl)cc1 [Example 1-55, Methyl (4-(5-chloro-2-((2S,3S)-1-((E)-3-(5-chloro-2-(1H-tetrazol-1-yl)phenyl)acryloyl)-3-phenylpiperidin-2-yl)-1H-imidazol-4-yl)phenyl)carbamate]",31.5 nM
15,"O=C(/C=C/c1cc(Cl)ccc1-n1cnnn1)N1CCCC(c2ccccc2)C1c1nc(-c2cccc(C(F)(F)F)c2)c[nH]1 (centres unmarked) [Example 1-31, (E)-3-(5-chloro-2-(1H-tetrazol-1-yl)phenyl)-1-(3-phenyl-2-(4-(3-(tifluoromethyl)phenyl)-1H-imidazol-2-yl)piperidin-1-yl)prop-2-en-1-one]",> 10000 nM
16,"O=C(/C=C/c1cc(Cl)ccc1-n1cnnn1)N1CCCC(c2ccccc2)C1c1nc(-c2ccc3[nH]c(=O)oc3c2)c[nH]1 (centres unmarked) [Example 1-53, (E)-6-(2-(1-(3-(5-chloro-2-(1H-tetrazol-1-yl)phenyl)acryloyl)-3-phenylpiperidin-2-yl)-1H-imidazol-4-yl)benzo[d]oxazol-2(3H)-one]",> 10000 nM
17,"O=C(O)c1ccc(NC(=O)C2C(C3CCCCC3)CCCN2C(=O)/C=C/c2cc(Cl)ccc2-n2cnnn2)cc1 (centres unmarked) [Example 1-5, (E)-1-(2-(3-(2-((4-carboxyphenyl)carbamoyl)-3-cyclohexylpiperidin-1-yl)-3-oxoprop-1-en-1-yl)-4-chlorophenyl)-1H-tetrazol-2-ium 2,2,2-trifluoroacetate]",44 nM
18,"NCC1CCC(C(=O)N2CCCC(c3ccccc3)C2C(=O)Nc2ccc(C(=O)O)cc2)CC1 (centres unmarked) [Example 1-50, 4-(1-(4-(aminomethyl)cyclohexanecarbonyl)-3-phenylpiperidine-2-carboxamido)benzoic acid]",72.8 nM
19,"COc1cccc(-c2c[nH]c(C3C(c4ccccc4)CCCN3C(=O)/C=C/c3cc(Cl)ccc3-n3cnnn3)n2)c1 (centres unmarked) [Example 1-28, (E)-3-(5-chloro-2-(1H-tetrazol-1-yl)phenyl)-1-(2-(4-(3-methoxyphenyl)-1H-imidazol-2-yl)-3-phenylpiperidin-1-yl)prop-2-en-1-one]",> 10000 nM
20,"O=C(NC12CCC(C(=O)O)(CC1)CC2)[C@@H]1[C@H](c2ccccc2)CCCN1C(=O)/C=C/c1cc(Cl)ccc1-n1cnnn1 [Example 1-72, 4-((2S,3S)-1-((E)-3-(5-chloro-2-(1H-tetrazol-1-yl)phenyl)acryloyl)-3-phenylpiperidine-2-carboxamido)bicyclo[2.2.2]octane-1-carboxylic acid]",63.6 nM
21,"O=C(O)c1ccc(NC(=O)C2C(c3ccc(OC(F)(F)F)cc3)CCCN2C(=O)/C=C/c2cc(Cl)ccc2-n2cnnn2)cc1 (centres unmarked) [Example 1-35, (E)-4-(1-(3-(5-chloro-2-(1H-tetrazol-1-yl)phenyl)acryloyl)-3-(4-(tifluoromethoxy)phenyl)piperidine-2-carboxamido)benzoic acid]",122 nM
22,"O=C(Nc1ccc2cn[nH]c2c1)C1C(c2ccccc2)CCCN1C(=O)/C=C/c1cc(Cl)ccc1-n1cnnn1 (centres unmarked) [Example 1-61, (E)-1-(3-(5-chloro-2-(1H-tetrazol-1-yl)phenyl)acryloyl)-N-(1H-indazol-6-yl)-3-phenylpiperidine-2-carboxamide]",91.6 nM
23,"COC(=O)Nc1ccc(-c2c[nH]c(C3C(c4ccccc4)CCCN3C(=O)/C=C/c3cc(Cl)ccc3-n3cnnn3)n2)cc1 (centres unmarked) [Example 1-38, (E)-methyl (4-(2-(1-(3-(5-chloro-2-(1H-tetrazol-1-yl)phenyl)acryloyl)-3-phenylpiperidin-2-yl)-1H-imidazol-4-yl)phenyl)carbamate]",90 nM
24,"O=C(O)c1ccc(NC(=O)C2C(c3ccccc3)CCCN2C(=O)CCc2cc(Cl)ccc2-n2cnnn2)cc1 (centres unmarked) [Example 1-9, 4-(1-(3-(5-chloro-2-(1H-tetrazol-1-yl)phenyl)propanoyl)-3-phenylpiperidine-2-carboxamido)benzoic acid]",57.1 nM
25,"COC(=O)Nc1ccc(-c2c[nH]c(C3C(c4ccccc4)CCCN3C(=O)/C=C/c3cc(Cl)ccc3-n3cnnn3)n2)cc1 (centres unmarked) [Example 1-46, (E)-methyl (4-(2-(1-(3-(5-chloro-2-(1H-tetrazol-1-yl)phenyl)acryloyl)-3-phenylpiperidin-2-yl)-1H-imidazol-4-yl)phenyl)carbamate]",65.5 nM
26,"CC(C)(C)OC(=O)c1ccc(NC(=O)C2C(C3CCCCC3)CCCN2C(=O)/C=C/c2cc(Cl)ccc2-n2cnnn2)cc1 (centres unmarked) [Example 1-3, (E)-tert-butyl 4-(1-(3-(5-chloro-2-(1H-tetrazol-1-yl)phenyl)acryloyl)-3-cyclohexylpiperidine-2-carboxamido)benzoate]",> 10000 nM

# From US20160229839A1, “Factor XIa Inhibitors” (Merck Sharp & Dohme Corp., priority 2013, published 2016)
